Experiments:
Format in all cases: in vivo
Pansy plants [1] = experiment: Pansy yellow leaf number (leaf yellowing)
Method: All studies were conducted in the greenhouse at the research farm of Valent BioSciences Corporation (Long Grove, Ill.). Pansy plants were obtained either from local retailers as mature plants, or plugs from wholesale nurseries. Plugs of Pansy plants were transplanted into an 18-cell flat filled with Promix BX (available from Premier Horticulture Inc. Quakertown, Pa.) and grown for about 30 days prior to treatment. During growing periods, plants received daily irrigation and weekly fertilizer (1 g/L all purpose fertilizer 20-20-20, The Scotts Company, Marysville, Ohio).
(§1) Uniform plants were selected for the study. Prior to chemical treatment, plants were saturated with water and then drained for about two hours. A total of 20 mL chemical solution, which is equivalent to about 10% of the cell volume, was applied to each plant with 3 mL solution foliar applied to canopy and 17 mL solution drench applied to root zone. Unless specified, watering of plants was stopped after chemical treatment.
After chemical treatment, plants were arranged in a randomized complete block experimental design. The plants were rated daily for the extent of wilting on a scale from 1 (no wilting) to 4 (complete wilting) to generated a sales index rating. A rating of 2.5 was the point at which a plant was determined to be unmarketable and the previous day was recorded as the shelf life of that plant in days. […] Leaf transpiration rate was measured after treatment using a LI-1600 Steady State Porometer (LI-Cor, Lincoln, Nebr.). The transpiration rate of each treatment was calculated as the percentage of that of control at each day to reduce day-to-day variation caused by changes of environmental condition such as light intensity, humidity, and temperature.

Pansy plants [2] = experiment: Pansy shelf life under drought (daily wilting rating, sales index)
Method in brief: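 Greenhouse pansies were treated with 20 mL solution each, 3 mL foliar plus 17 mL root drench, then watering was withheld. Wilting was rated daily on a 1–4 scale, and shelf life was the day before the rating reached 2.5. Yellow leaves were counted 3 days after treatment.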

Pansy plants [3] = experiment: Pansy leaf transpiration rate (LI-1600 Steady State Porometer); conditions: Matrix Premium Rose
Method: as §1
After chemical treatment, plants were arranged in a randomized complete block experimental design. The plants were rated daily for the extent of wilting on a scale from 1 (no wilting) to 4 (complete wilting) to generated a sales index rating. A rating of 2.5 was the point at which a plant was determined to be unmarketable and the previous day was recorded as the shelf life of that plant in days. Yellow leaf number was counted at 3 days after chemical treatment. Leaf transpiration rate was measured after treatment using a LI-1600 Steady State Porometer (LI-Cor, Lincoln, Nebr.). The transpiration rate of each treatment was calculated as the percentage of that of control at each day to reduce day-to-day variation caused by changes of environmental condition such as light intensity, humidity, and temperature.

- Yellow leaf number (Pansy plants [1]; 0.2 mg BA, Matrix Yellow, 3 d after treatment, Table 5): 1.8
- Yellow leaf number (Pansy plants [1]; 0.2 mg BA, no water, Whispers White, 3 d after treatment, Table 15): 7.8
- Yellow leaf number (Pansy plants [1]; 2 mg BA at 0 d, Matrix Premium Rose, 3 d after treatment, Table 11): 0.8
- Yellow leaf number (Pansy plants [1]; 2 mg BA at +1 d, Matrix Premium Rose, 3 d after treatment, Table 11): 0.8
- Yellow leaf number (Pansy plants [1]; 2 mg BA at −1 d, Matrix Premium Rose, 3 d after treatment, Table 11): 0.7
- Yellow leaf number (Pansy plants [1]; 2 mg BA, Delta Premium Pure White, 3 days after treatment, Table 23): 1.3
- Yellow leaf number (Pansy plants [1]; 2 mg BA, Delta Premium Pure White, 7 days after treatment, Table 23): 6.2
- Yellow leaf number (Pansy plants [1]; 2 mg BA, Matrix Yellow, 3 d after treatment, Table 5): 1.5
- Yellow leaf number (Pansy plants [1]; 2 mg BA, no water, Matrix Premium Rose, 3 d after treatment, Table 13): 0.8
- Yellow leaf number (Pansy plants [1]; 2 mg BA, no water, Whispers White, 3 d after treatment, Table 15): 6.3
- Yellow leaf number (Pansy plants [1]; 2 mg, Clear Sky Yellow, drought, 3 d after treatment, Table 8): 0.0
- Yellow leaf number (Pansy plants [1]; 2 mg, Crown Azure Blue, drought, 3 d after treatment, Table 9): 0.3
- Yellow leaf number (Pansy plants [1]; 2 mg, Matrix Yellow, drought, 3 d after treatment, Table 7): 7.8
- Yellow leaf number (Pansy plants [1]; 2 mg, Matrix Yellow, drought, 3 d after treatment, Table 10): 7.2
SMILES: c1ccc(CNc2ncnc3nc[nH]c23)cc1 [BA, 6-benzylaminopurine]
- Shelf life (Pansy plants [2]; 0.2 mg BA, Matrix Yellow, Table 5): 3.8 days
- Shelf life (Pansy plants [2]; 0.2 mg BA, no water, Whispers White, Table 15): 2.5 days
- Shelf life (Pansy plants [2]; 2 mg BA at 0 d, Matrix Premium Rose, Table 11): 3.7 days
- Shelf life (Pansy plants [2]; 2 mg BA at +1 d, Matrix Premium Rose, Table 11): 4.0 days
- Shelf life (Pansy plants [2]; 2 mg BA at −1 d (1 day prior to ABA treatment day), Matrix Premium Rose, Table 11): 3.8 days
- Shelf life (Pansy plants [2]; 2 mg BA, Delta Premium Pure White, Table 23): 4.0 days
- Shelf life (Pansy plants [2]; 2 mg BA, Matrix Yellow, Table 5): 3.8 days
- Shelf life (Pansy plants [2]; 2 mg BA, no water, Matrix Premium Rose, Table 13): 4.0 days
- Shelf life (Pansy plants [2]; 2 mg BA, no water, Whispers White, Table 15): 2.7 days
- Shelf life (Pansy plants [2]; 2 mg, Clear Sky Yellow, drought, Table 8): 3.8 days
- Shelf life (Pansy plants [2]; 2 mg, Crown Azure Blue, drought, Table 9): 3.3 days
- Shelf life (Pansy plants [2]; 2 mg, Matrix Yellow, drought, Table 7): 3.5 days
- Shelf life (Pansy plants [2]; 2 mg, Matrix Yellow, drought, Table 10): 2.3 days
- Transpiration rate (% of control) (Pansy plants [3]; 0.2 mg BA, no water, day 1 after treatment, Table 16): 101 % of control
- Transpiration rate (% of control) (Pansy plants [3]; 0.2 mg BA, no water, day 2 after treatment, Table 16): 29 % of control
- Transpiration rate (% of control) (Pansy plants [3]; 0.2 mg BA, no water, day 3 after treatment, Table 16): 7 % of control
- Transpiration rate (% of control) (Pansy plants [3]; 0.2 mg BA, watered, day 1 after treatment, Table 16): 102 % of control
- Transpiration rate (% of control) (Pansy plants [3]; 0.2 mg BA, watered, day 2 after treatment, Table 16): 98 % of control
- Transpiration rate (% of control) (Pansy plants [3]; 0.2 mg BA, watered, day 3 after treatment, Table 16): 100 % of control
- Transpiration rate (% of control) (Pansy plants [3]; 0.2 mg BA, watered, day 4 after treatment, Table 16): 101 % of control
- Transpiration rate (% of control) (Pansy plants [3]; 0.2 mg BA, watered, day 5 after treatment, Table 16): 100 % of control
- Transpiration rate (% of control) (Pansy plants [3]; 0.2 mg BA, watered, day 7 after treatment, Table 16): 99 % of control
- Transpiration rate (% of control) (Pansy plants [3]; 0.2 mg BA, watered, day 10 after treatment, Table 16): 100 % of control
- Transpiration rate (% of control) (Pansy plants [3]; 2 mg BA at 0 d, day 1 after ABA treatment, Table 12): 105 % of control
- Transpiration rate (% of control) (Pansy plants [3]; 2 mg BA at 0 d, day 2 after ABA treatment, Table 12): 97 % of control
- Transpiration rate (% of control) (Pansy plants [3]; 2 mg BA at 0 d, day 3 after ABA treatment, Table 12): 98 % of control
- Transpiration rate (% of control) (Pansy plants [3]; 2 mg BA at +1 d, day 1 after ABA treatment, Table 12): 96 % of control
- Transpiration rate (% of control) (Pansy plants [3]; 2 mg BA at +1 d, day 2 after ABA treatment, Table 12): 101 % of control
- Transpiration rate (% of control) (Pansy plants [3]; 2 mg BA at +1 d, day 3 after ABA treatment, Table 12): 107 % of control
- Transpiration rate (% of control) (Pansy plants [3]; 2 mg BA at −1 d, day 1 after ABA treatment, Table 12): 115 % of control
- Transpiration rate (% of control) (Pansy plants [3]; 2 mg BA at −1 d, day 2 after ABA treatment, Table 12): 104 % of control
- Transpiration rate (% of control) (Pansy plants [3]; 2 mg BA at −1 d, day 3 after ABA treatment, Table 12): 109 % of control
- Transpiration rate (% of control) (Pansy plants [3]; 2 mg BA, no water, day 1 after treatment, Table 14): 108 % of control
- Transpiration rate (% of control) (Pansy plants [3]; 2 mg BA, no water, day 1 after treatment, Table 16): 101 % of control
- Transpiration rate (% of control) (Pansy plants [3]; 2 mg BA, no water, day 2 after treatment, Table 14): 71 % of control
- Transpiration rate (% of control) (Pansy plants [3]; 2 mg BA, no water, day 2 after treatment, Table 16): 34 % of control
- Transpiration rate (% of control) (Pansy plants [3]; 2 mg BA, no water, day 3 after treatment, Table 14): 54 % of control
- Transpiration rate (% of control) (Pansy plants [3]; 2 mg BA, no water, day 3 after treatment, Table 16): 14 % of control
- Transpiration rate (% of control) (Pansy plants [3]; 2 mg BA, no water, day 4 after treatment, Table 14): 35 % of control
- Transpiration rate (% of control) (Pansy plants [3]; 2 mg BA, watered, day 1 after treatment, Table 14): 109 % of control
- Transpiration rate (% of control) (Pansy plants [3]; 2 mg BA, watered, day 1 after treatment, Table 16): 99 % of control
- Transpiration rate (% of control) (Pansy plants [3]; 2 mg BA, watered, day 2 after treatment, Table 14): 102 % of control
- Transpiration rate (% of control) (Pansy plants [3]; 2 mg BA, watered, day 2 after treatment, Table 16): 97 % of control
- Transpiration rate (% of control) (Pansy plants [3]; 2 mg BA, watered, day 3 after treatment, Table 14): 101 % of control
- Transpiration rate (% of control) (Pansy plants [3]; 2 mg BA, watered, day 3 after treatment, Table 16): 98 % of control
- Transpiration rate (% of control) (Pansy plants [3]; 2 mg BA, watered, day 4 after treatment, Table 14): 101 % of control
- Transpiration rate (% of control) (Pansy plants [3]; 2 mg BA, watered, day 4 after treatment, Table 16): 97 % of control
- Transpiration rate (% of control) (Pansy plants [3]; 2 mg BA, watered, day 5 after treatment, Table 14): 99 % of control
- Transpiration rate (% of control) (Pansy plants [3]; 2 mg BA, watered, day 5 after treatment, Table 16): 101 % of control
- Transpiration rate (% of control) (Pansy plants [3]; 2 mg BA, watered, day 7 after treatment, Table 14): 98 % of control
- Transpiration rate (% of control) (Pansy plants [3]; 2 mg BA, watered, day 7 after treatment, Table 16): 97 % of control
- Transpiration rate (% of control) (Pansy plants [3]; 2 mg BA, watered, day 10 after treatment, Table 14): 101 % of control
- Transpiration rate (% of control) (Pansy plants [3]; 2 mg BA, watered, day 10 after treatment, Table 16): 102 % of control
- Transpiration rate (% of control) (Pansy plants [3]; 2 mg BA, watered, day 15 after treatment, Table 14): 98 % of control

Source: US20100022562A1, “Use of Plant Growth Regulators to Reduce Abscisic Acid Related Plant Leaf Yellowing” (priority 2008, published 2010)
